In patent publication US20260124122A1, “QUATERNARY AMMONIUM SILANE AQUEOUS HYDROGEL FORMULATIONS” (priority 2023, published 2026):

What was measured:
Assay type in all cases: physicochemical
[1] = Dissolution in water and stability of the aqueous solution of the isolated product; details: for dissolution of the product in water: isolated product
[2] = Hydrolysis of quaternary ammonium silane, Direct Infusion Mass Spectrometry, ESI+ mode
Procedure: In this example, hydrolysis of Compound VII was evaluated in the mass-spectrometry study (Direct Infusion Mass Spectrometry, ESI+ mode).
In a first experiment, Compound VII was dissolved in propylene glycol and diluted with acetonitrile to a final concentration of 10 μg/mL in the sample. […] Two minor peaks with m/z of 592 (Compound VII) and m/z of 534 (mono-hydrolyzed species of Compound VII) are present at low abundance. […] Exposure time during the HPLC-mass spec analysis is less than 45 seconds, further confirming the rapid hydrolysis of the quaternary ammonium silane upon exposure to water.
In a second experiment, Compound VII was diluted in water to a final concentration of 10 μg/mL in the sample. The mass spectrum of the sample was recorded at a 30-minute time point and is shown FIG. 3. Compound VII was completely hydrolyzed within the 30-minute time frame according to the following reaction scheme:
0.50% of Compound VII was formulated with 2% propylene glycol, 1% HPMC, 0.1% poloxamer 407, 2% PEG, and 94.40% water.

[3] = Precipitation on addition to hydrogels containing ionic or non-ionic, carboxylic acid group containing ingredients; details: zinc gluconate, sorbitol, glycerin
Procedure: (§1) 160 mls of distilled water was added to a 250 mL screw-top media bottle. 4 g of Xanthan gum was added slowly under vigorous stirring. The mixture was stirred overnight and the Xanthan gum was fully dissolved, with the mixture homogenous and clear. Zinc gluconate (0.2 g), sorbitol (10 g), glycerin (4 g), and Poloxamer 407 (0.4 g) were added to the mixture and stirred until homogenous and clear. […] At this point the process was stopped.
as §1, with “bottle. 0.2” for “bottle. 4”, “of carbomer copolymer A” for “of Xanthan gum”, “the carbomer copolymer A” for “the Xanthan gum”
as §1, with “bottle. 0.2” for “bottle. 4”, “of carbomer copolymer B” for “of Xanthan gum”, “the carbomer copolymer B” for “the Xanthan gum”
as §1, with “bottle. 0.2” for “bottle. 4”, “of carrageenan” for “of Xanthan gum”, “the carrageenan” for “the Xanthan gum”
as §1, with “bottle. 0.2” for “bottle. 4”, “of carboxymethylcellulose Sodium” for “of Xanthan gum”, “the Carboxymethylcellulose Sodium” for “the Xanthan gum”
as §1, with “bottle. 0.2” for “bottle. 4”, “of Sodium Alginate” for “of Xanthan gum”, “the Sodium Alginate” for “the Xanthan gum”
as §1, with “of HPMC having a viscosity 2600-5600 in H2O (20° C.)” for “of Xanthan gum”, “the HPMC” for “the Xanthan gum”, “and sodium hyaluronate” for “and Poloxamer 407”

CCCCCCCCCCCCCCCCCC[N+](C)(C)CCC[Si](OCCCO)(OCCCO)OCCCO [Example 5, Dimethyl-octadecyl-[3-[tris(3-hydroxypropoxy)silyl]propyl]ammonium chloride]
dissolution of the product in water ([1]; water): dissolved readily in water

CCCCCCCCCCCCCCCCCC[N+](C)(C)CCC[Si](OCC(C)(CO)C(=O)O)(OCC(C)(CO)C(=O)O)OCC(C)(CO)C(=O)O (stereo not shown) [Example 4, Dimethyl-octadecyl-[3-tris(2-carboxy-3-hydroxy-2-methyl-propoxy)silylpropyl]ammonium chloride]
dissolution of the product in water ([1]; water): dissolved readily in water

CCCCCCCCCCCCCCCCCC[N+](C)(C)CCC[Si](OCC(C)O)(OCC(C)O)OCC(C)O.CS(=O)(=O)[O-] (stereo not shown) [Compound VII, N,N-dimethyl-N-(3-(tris(2-hydroxypropoxy)silyl)propyl)octadecan-1-aminium methane sulfonate]
extent of hydrolysis ([2]; 0.50% formulated with 2% propylene glycol, 1% HPMC, 0.1% poloxamer 407, 2% PEG, 94.40% water): complete hydrolysis
time frame of complete hydrolysis ([2]; diluted in water, 10 μg/mL): ≤ 30 min
extent of hydrolysis ([2]; diluted in water, 30-minute time point): complete hydrolysis
extent of hydrolysis ([2]; in propylene glycol diluted with acetonitrile, 10 μg/mL, 0.1% aqueous formic acid mobile phase, exposure less than 45 seconds): Partial hydrolysis

CCCCCCCCCCCCCCCCCC[N+](C)(C)CCC[Si](OCC(C)O)(OCC(C)O)OCC(C)O (stereo not shown) [Example 1, Dimethyl-octadecyl-[3-[tris(2-hydroxypropoxy)silyl]propyl]ammonium chloride]
dissolution of the product in water ([1]; water): dissolved readily in water

CCCCCCCCCCCCCCCCCC[N+](C)(C)CCC[Si](OCC(CO)(CO)NCCS(=O)(=O)[O-])(OCC(CO)(CO)NCCS(=O)(=O)O)OCC(CO)(CO)NCCS(=O)(=O)O [Compound XIX, 2-[[1-[[3-[Dimethyl(octadecyl)ammonio]propyl-[3-hydroxy-2-(hydroxymethyl)-2-(2-sulfoethylamino)propoxy]-[3-hydroxy-2-(hydroxymethyl)-2-(2-sulfoethylamino)propoxy]silyl]oxymethyl]-2-hydroxy-1-(hydroxymethyl)ethyl]amino]-ethanesulfonate]
time a solution in water remains clear ([1]; 1% solution in water): > 5 months
dissolution of the fine powder in water ([1]; water, gentle heating): dissolves quickly in water with gentle heating
precipitation on addition to the mixture ([3]; HPMC with sodium hyaluronate): immediate precipitation
precipitation on addition to the mixture ([3]; Sodium Alginate as gelling agent, Poloxamer 407): immediate precipitation
precipitation on addition to the mixture ([3]; Xanthan gum as gelling agent, Poloxamer 407): immediate precipitation
precipitation on addition to the mixture ([3]; carbomer copolymer A as gelling agent, Poloxamer 407): immediate precipitation
precipitation on addition to the mixture ([3]; carbomer copolymer B as gelling agent, Poloxamer 407): immediate precipitation
precipitation on addition to the mixture ([3]; carboxymethylcellulose Sodium as gelling agent, Poloxamer 407): immediate precipitation
precipitation on addition to the mixture ([3]; carrageenan as gelling agent, Poloxamer 407): immediate precipitation
